Molecular target: T1, Receptor-interacting protein kinase 1 (RIPK1) (Homo sapiens, UniProt Q13546)
T1 construct: with VHL
Assay: cell-based
Design: HiBiT luminescence of CRISPR-tagged endogenous RIPK1 (C-terminal HiBiT) after PROTAC treatment; degradation DC50 and Dmax
Conditions: HEK293T-RIPK1-HiBiT cells; read-out: Dmax (HEK293T-RIPK1-HiBiT cell line)
Method: Screening of RIPK1 Degraders Using HEK-293T-RIPK1-HiBiT cells  3 Primary screening RIPK1 degraders using HEK293T-RIPK1-HiBiT cell line. Cells were seeded in 96-well plates and treated with test compounds for 20 h. After treatment, Bioluminescence signal reflecting RIPK1 protein level was generated by adding Nano-Glo HiBiT detect reagent. A) Bioluminescence signal was visualized using Bio-Rad ChemiDoc MP Imaging system. The grayscale intensity is positively correlated with protein abundance. B) Relative luminescence Units (RLUs) in each well was measured using CLARIOstar plate reader. DC50 values were calculated by nonlinear regression analysis in GraphPad Prism software. DC50 = dose that reduces RIPK1 protein by 50%. D max = maximum reduction of RIPK1 protein achieved by the compound. Guide RNA oligos for RIPK1 (foward: CACCGA-GCCCAT-CCAGGG-TTAGTTC. reverse: AAACGA-ACTAAC-CCTGGA-TGGGCTC) were cloned into Cas9 expression plasmid (pSpCas9–2A-GFP purchased from Addgene), and cotransfected with donor DNA oligo using FuGENE HD Transfection Reagent (Promega). GFP positive cells were FACS sorted and single clones were screened for HiBiT signal by Nano Glo HiBiT Lytic Detection System (Promega).

T1 sequence (Q13546 whole entry): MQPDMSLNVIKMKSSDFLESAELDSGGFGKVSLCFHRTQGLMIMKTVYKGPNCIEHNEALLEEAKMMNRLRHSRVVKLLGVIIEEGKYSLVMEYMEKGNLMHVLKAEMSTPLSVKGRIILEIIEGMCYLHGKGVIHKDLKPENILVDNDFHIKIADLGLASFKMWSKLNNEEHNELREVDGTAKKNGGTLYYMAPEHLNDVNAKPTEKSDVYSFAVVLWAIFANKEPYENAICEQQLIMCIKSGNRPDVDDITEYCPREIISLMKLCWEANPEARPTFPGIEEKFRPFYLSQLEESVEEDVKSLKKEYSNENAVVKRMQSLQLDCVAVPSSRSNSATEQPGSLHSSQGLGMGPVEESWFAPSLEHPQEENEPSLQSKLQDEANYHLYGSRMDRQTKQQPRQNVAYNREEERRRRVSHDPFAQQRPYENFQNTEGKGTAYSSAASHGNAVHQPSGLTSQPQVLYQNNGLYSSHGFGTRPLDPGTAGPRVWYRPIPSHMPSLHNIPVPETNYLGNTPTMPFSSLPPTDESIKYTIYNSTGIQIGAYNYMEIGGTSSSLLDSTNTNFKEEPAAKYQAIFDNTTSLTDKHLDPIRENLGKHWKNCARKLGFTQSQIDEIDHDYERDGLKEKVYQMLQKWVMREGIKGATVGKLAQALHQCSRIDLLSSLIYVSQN
T1 sequence (P40337 whole entry partner): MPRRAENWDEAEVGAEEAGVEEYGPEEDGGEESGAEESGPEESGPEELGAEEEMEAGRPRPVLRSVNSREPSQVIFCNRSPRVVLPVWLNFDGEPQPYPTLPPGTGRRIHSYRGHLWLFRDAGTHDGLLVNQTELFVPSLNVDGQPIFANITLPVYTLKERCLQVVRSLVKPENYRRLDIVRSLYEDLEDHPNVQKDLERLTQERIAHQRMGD

SMILES | Dmax [%]
Cc1ncsc1-c1ccc([C@H](C)NC(=O)[C@@H]2C[C@@H](O)CN2C(=O)[C@@H](NC(=O)CCCCCOc2ccc(CNC(=O)Cn3cc(-c4cnc(N)c5c(-c6ccc7c(c6)CCN7C(=O)Cc6ccccc6)csc45)cn3)cc2)C(C)(C)C)cc1 [214-9] | 87
Cc1ncsc1-c1ccc([C@H](C)NC(=O)[C@@H]2C[C@@H](O)CN2C(=O)[C@@H](NC(=O)CCCCOc2ccc(CNC(=O)Cn3cc(-c4cnc(N)c5c(-c6ccc7c(c6)CCN7C(=O)Cc6ccccc6)csc45)cn3)cc2)C(C)(C)C)cc1 [214-8] | 90
Cc1ncsc1-c1ccc([C@H](C)NC(=O)[C@@H]2C[C@@H](O)CN2C(=O)[C@@H](NC(=O)COc2ccc(CCNC(=O)Cn3cc(-c4cnc(N)c5c(-c6ccc7c(c6)CCN7C(=O)Cc6ccccc6)csc45)cn3)cc2)C(C)(C)C)cc1 [204-2] | 95
Cc1ncsc1-c1ccc([C@H](C)NC(=O)[C@@H]2C[C@@H](O)CN2C(=O)[C@@H](NC(=O)COCCOCCNC(=O)Cn2cc(-c3cnc(N)c4c(-c5ccc6c(c5)CCN6C(=O)Cc5ccccc5)csc34)cn2)C(C)(C)C)cc1 [208-2] | 78
Cc1ncsc1-c1ccc([C@H](C)NC(=O)[C@@H]2C[C@@H](O)CN2C(=O)[C@@H](NC(=O)COc2ccc(CNC(=O)Cn3cc(-c4cnc(N)c5c(-c6ccc7c(c6)CCN7C(=O)Cc6ccccc6)csc45)cn3)cc2)C(C)(C)C)cc1 [214-6] | 71
Cc1ncsc1-c1ccc([C@H](C)NC(=O)[C@@H]2C[C@@H](O)CN2C(=O)[C@@H](NC(=O)COCCOCCOCCOCCNC(=O)Cn2cc(-c3cnc(N)c4c(-c5ccc6c(c5)CCN6C(=O)Cc5ccccc5)csc34)cn2)C(C)(C)C)cc1 [208-6] | 55
Cc1ncsc1-c1ccc([C@H](C)NC(=O)[C@@H]2C[C@@H](O)CN2C(=O)[C@@H](NC(=O)COCCOCCOCCNC(=O)Cn2cc(-c3cnc(N)c4c(-c5ccc6c(c5)CCN6C(=O)Cc5ccccc5)csc34)cn2)C(C)(C)C)cc1 [208-4] | 75
Cc1ncsc1-c1ccc([C@H](C)NC(=O)[C@@H]2C[C@@H](O)CN2C(=O)[C@@H](NC(=O)CCCOc2ccc(CNC(=O)Cn3cc(-c4cnc(N)c5c(-c6ccc7c(c6)CCN7C(=O)Cc6ccccc6)csc45)cn3)cc2)C(C)(C)C)cc1 [214-7] | 81
Cc1ncsc1-c1ccc([C@H](C)NC(=O)[C@@H]2C[C@@H](O)CN2C(=O)[C@@H](NC(=O)CCOc2ccc(CCNC(=O)Cn3cc(-c4cnc(N)c5c(-c6ccc7c(c6)CCN7C(=O)Cc6ccccc6)csc45)cn3)cc2)C(C)(C)C)cc1 [204-4] | 96
Cc1ncsc1-c1ccc([C@H](C)NC(=O)[C@@H]2C[C@@H](O)CN2C(=O)[C@@H](NC(=O)CCCCCCOc2ccc(CNC(=O)Cn3cc(-c4cnc(N)c5c(-c6ccc7c(c6)CCN7C(=O)Cc6ccccc6)csc45)cn3)cc2)C(C)(C)C)cc1 [214-10] | 92

Further lines, results first:

Dmax [%] | SMILES
93 | Cc1ncsc1-c1ccc([C@H](C)NC(=O)[C@@H]2C[C@@H](O)CN2C(=O)[C@@H](NC(=O)COCCOc2ccc(CCNC(=O)Cn3cc(-c4cnc(N)c5c(-c6ccc7c(c6)CCN7C(=O)Cc6ccccc6)csc45)cn3)cc2)C(C)(C)C)cc1 [224-6]
93 | Cc1ncsc1-c1ccc([C@H](C)NC(=O)[C@@H]2C[C@@H](O)CN2C(=O)[C@@H](NC(=O)CCCCOc2ccc(NC(=O)Cn3cc(-c4cnc(N)c5c(-c6ccc7c(c6)CCN7C(=O)Cc6ccccc6)csc45)cn3)cc2)C(C)(C)C)cc1 [217-12]
5 | Cc1ncsc1-c1ccc([C@H](C)NC(=O)[C@@H]2C[C@@H](O)CN2C(=O)[C@@H](NC(=O)CCN2CCN(C(=O)CNC(=O)Cn3cc(-c4cnc(N)c5c(-c6ccc7c(c6)CCN7C(=O)Cc6ccccc6)csc45)cn3)CC2)C(C)(C)C)cc1 [229-3]
94 | Cc1ncsc1-c1ccc([C@H](C)NC(=O)[C@@H]2C[C@@H](O)CN2C(=O)[C@@H](NC(=O)CCCCCCCNC(=O)Cn2cc(-c3cnc(N)c4c(-c5ccc6c(c5)CCN6C(=O)Cc5ccccc5)csc34)cn2)C(C)(C)C)cc1 [216-15]
93 | Cc1ncsc1-c1ccc([C@H](C)NC(=O)[C@@H]2C[C@@H](O)CN2C(=O)[C@@H](NC(=O)CN2CCN(CC3CCN(C(=O)Cn4cc(-c5cnc(N)c6c(-c7ccc8c(c7)CCN8C(=O)Cc7ccccc7)csc56)cn4)CC3)CC2)C(C)(C)C)cc1 [225-4]
91 | Cc1ncsc1-c1ccc([C@H](C)NC(=O)[C@@H]2C[C@@H](O)CN2C(=O)[C@@H](NC(=O)CN2CCN(C3CCN(C(=O)Cn4cc(-c5cnc(N)c6c(-c7ccc8c(c7)CCN8C(=O)Cc7ccccc7)csc56)cn4)CC3)CC2)C(C)(C)C)cc1 [225-2]
88 | Cc1ncsc1-c1ccc([C@H](C)NC(=O)[C@@H]2C[C@@H](O)CN2C(=O)[C@@H](NC(=O)CCCCCCNC(=O)Cn2cc(-c3cnc(N)c4c(-c5ccc6c(c5)CCN6C(=O)Cc5ccccc5)csc34)cn2)C(C)(C)C)cc1 [216-14]
58 | Cc1ncsc1-c1ccc([C@H](C)NC(=O)[C@@H]2C[C@@H](O)CN2C(=O)[C@@H](NC(=O)CCCCCN2CCN(C(=O)Cn3cc(-c4cnc(N)c5c(-c6ccc7c(c6)CCN7C(=O)Cc6ccccc6)csc45)cn3)CC2)C(C)(C)C)cc1 [229-1]
9 | Cc1ncsc1-c1ccc([C@H](C)NC(=O)[C@@H]2C[C@@H](O)CN2C(=O)[C@@H](NC(=O)CCCCNC2CCN(C(=O)Cn3cc(-c4cnc(N)c5c(-c6ccc7c(c6)CCN7C(=O)Cc6ccccc6)csc45)cn3)CC2)C(C)(C)C)cc1 [229-2]
93 | Cc1ncsc1-c1ccc([C@H](C)NC(=O)[C@@H]2C[C@@H](O)CN2C(=O)[C@@H](NC(=O)CCCCCNC(=O)Cn2cc(-c3cnc(N)c4c(-c5ccc6c(c5)CCN6C(=O)Cc5ccccc5)csc34)cn2)C(C)(C)C)cc1 [216-13]
93 | Cc1ncsc1-c1ccc([C@H](C)NC(=O)[C@@H]2C[C@@H](O)CN2C(=O)[C@@H](NC(=O)COCCOc2ccc(CNC(=O)Cn3cc(-c4cnc(N)c5c(-c6ccc7c(c6)CCN7C(=O)Cc6ccccc6)csc45)cn3)cc2)C(C)(C)C)cc1 [224-5]
22 | Cc1ncsc1-c1ccc([C@H](C)NC(=O)[C@@H]2C[C@@H](O)CN2C(=O)[C@@H](NC(=O)C2CCN(CCCNC(=O)Cn3cc(-c4cnc(N)c5c(-c6ccc7c(c6)CCN7C(=O)Cc6ccccc6)csc45)cn3)CC2)C(C)(C)C)cc1 [225-7]
62 | Cc1ncsc1-c1ccc([C@H](C)NC(=O)[C@@H]2C[C@@H](O)CN2C(=O)[C@@H](NC(=O)CCCNC(=O)Cn2cc(-c3cnc(N)c4c(-c5ccc6c(c5)CCN6C(=O)Cc5ccccc5)csc34)cn2)C(C)(C)C)cc1 [216-11]
93 | Cc1ncsc1-c1ccc([C@H](C)NC(=O)[C@@H]2C[C@@H](O)CN2C(=O)[C@@H](NC(=O)CCCCCCCCNC(=O)Cn2cc(-c3cnc(N)c4c(-c5ccc6c(c5)CCN6C(=O)Cc5ccccc5)csc34)cn2)C(C)(C)C)cc1 [216-16]
1 | Cc1ncsc1-c1ccc([C@H](C)NC(=O)[C@@H]2C[C@@H](O)CN2C(=O)[C@@H](NC(=O)CNC(=O)Cn2cc(-c3cnc(N)c4c(-c5ccc6c(c5)CCN6C(=O)Cc5ccccc5)csc34)cn2)C(C)(C)C)cc1 [216-9]
51 | Cc1ncsc1-c1ccc([C@H](C)NC(=O)[C@@H]2C[C@@H](O)CN2C(=O)[C@@H](NC(=O)CCCCNC(=O)Cn2cc(-c3cnc(N)c4c(-c5ccc6c(c5)CCN6C(=O)Cc5ccccc5)csc34)cn2)C(C)(C)C)cc1 [216-12]
92 | Cc1ncsc1-c1ccc([C@H](C)NC(=O)[C@@H]2C[C@@H](O)CN2C(=O)[C@@H](NC(=O)CCCCCOc2ccc(NC(=O)Cn3cc(-c4cnc(N)c5c(-c6ccc7c(c6)CCN7C(=O)Cc6ccccc6)csc45)cn3)cc2)C(C)(C)C)cc1 [217-13]
92 | Cc1ncsc1-c1ccc([C@H](C)NC(=O)[C@@H]2C[C@@H](O)CN2C(=O)[C@@H](NC(=O)COCCOCCOc2ccc(CCNC(=O)Cn3cc(-c4cnc(N)c5c(-c6ccc7c(c6)CCN7C(=O)Cc6ccccc6)csc45)cn3)cc2)C(C)(C)C)cc1 [224-8]
25 | Cc1ncsc1-c1ccc([C@H](C)NC(=O)[C@@H]2C[C@@H](O)CN2C(=O)[C@@H](NC(=O)CCNC(=O)Cn2cc(-c3cnc(N)c4c(-c5ccc6c(c5)CCN6C(=O)Cc5ccccc5)csc34)cn2)C(C)(C)C)cc1 [216-10]
96 | Cc1ncsc1-c1ccc([C@H](C)NC(=O)[C@@H]2C[C@@H](O)CN2C(=O)[C@@H](NC(=O)COc2ccc(NC(=O)Cn3cc(-c4cnc(N)c5c(-c6ccc7c(c6)CCN7C(=O)Cc6ccccc6)csc45)cn3)cc2)C(C)(C)C)cc1 [217-10]
34 | Cc1ncsc1-c1ccc([C@H](C)NC(=O)[C@@H]2C[C@@H](O)CN2C(=O)[C@@H](NC(=O)C2CCN(CCNC(=O)Cn3cc(-c4cnc(N)c5c(-c6ccc7c(c6)CCN7C(=O)Cc6ccccc6)csc45)cn3)CC2)C(C)(C)C)cc1 [225-6]
25 | Cc1ncsc1-c1ccc([C@H](C)NC(=O)[C@@H]2C[C@@H](O)CN2C(=O)[C@@H](NC(=O)CCN2CCN(CCNC(=O)Cn3cc(-c4cnc(N)c5c(-c6ccc7c(c6)CCN7C(=O)Cc6ccccc6)csc45)cn3)CC2)C(C)(C)C)cc1 [229-4]
87 | Cc1ncsc1-c1ccc([C@H](C)NC(=O)[C@@H]2C[C@@H](O)CN2C(=O)[C@@H](NC(=O)CN2CCN(C(=O)Cn3cc(-c4cnc(N)c5c(-c6ccc7c(c6)CCN7C(=O)Cc6ccccc6)csc45)cn3)CC2)C(C)(C)C)cc1 [225-3]
